Source: US7282325B2, “Method of preparing pharmaceutical compositions” (Solvay Pharmaceuticals GmbH, priority 2000, dated 2007)
pIC50: −log10 of the molar value.

Experiments:
[1] = target: T1, carboanhydrase of the subtype Va of mice (mCA Va) (Mus musculus, UniProt P23589); assay: 4-nitrophenylacetate-esterase enzyme activity test, mCA Va used at 120 nM; format: biochemical; conditions: mCA Va obtained by biotechnological processes; enzyme concentration 120 nM; read-out: inhibitory action on carboanhydrase of the subtype Va of mice (IC50)
T1 construct: made in house; host or cells: Escherichia coli BL 21 (DE3)
T1 sequence (P23589 30-299): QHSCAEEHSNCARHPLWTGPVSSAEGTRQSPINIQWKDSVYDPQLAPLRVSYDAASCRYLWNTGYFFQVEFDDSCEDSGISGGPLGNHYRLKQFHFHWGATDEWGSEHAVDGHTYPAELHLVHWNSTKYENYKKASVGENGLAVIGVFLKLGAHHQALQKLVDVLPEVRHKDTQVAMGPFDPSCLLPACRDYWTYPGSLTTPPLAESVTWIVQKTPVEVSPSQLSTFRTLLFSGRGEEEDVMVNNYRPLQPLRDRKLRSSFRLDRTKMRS
Experimental: In a departure from the test procedure described by Scozzafava et al, in this case the enzyme mCA Va was used in a concentration of 120 nM. The mCA Va was obtained in known manner by the method described by H. R. Heck et al., Journal of Biological Chemistry 269 (1994) 24742-24746. To this end, the strain of bacteria Escherichia coli BL 21 (DE3) was used, which was used with a plasmid vector which contained the sequence coding for mCA Va under the control of the T7 promoter which can be induced by isopropyl-β-D-thiogalactopyranoside (IPTG). The bacterial culture was inoculated at 37° C. with stirring into a Luria-Bertani liquid medium containing ampicillin (100 μg/ml) and its growth was monitored by spectrophotometry at 600 nm. Once the bacterial culture had entered the exponential growth phase, IPTG was added in a final concentration of 1 mmol/liter. After 3 hours incubation time (37° C. with stirring), the bacterial culture was centrifuged at 7000×g for 15 minutes, and the supernatant was discarded. The resulting pellet was taken up in 0.1 vol twice-distilled water, and lysozyme (100 μg/ml) was added thereto. The cell lysis took place under ultrasound treatment. […] After each ultrasound pulse, the absorption of the samples was determined at 600 nm, for which each 100 μl of a-sample was diluted with 900 μl twice-distilled water. […]

[2] = test system: of the 3T3-F442A cell line; assay: Test model according to Hazen et al.: formation of acid-soluble metabolic products of the citric acid cycle; format: cell-based; conditions: Adipocyte; rat adipocytes of the 3T3-F442A cell line; read-out: inhibitory effect on the formation of acid-soluble metabolic products of the citric acid cycle (IC50)
Text: In a second embodiment of the method according to the invention, compounds suitable for the treatment and/or prophylaxis of obesity can be discovered by selecting those compounds which are capable of reducing the amount of metabolic products formed in the citric acid cycle of isolated living mammalian cells or of lipidic secondary products of the citric acid cycle. […] Citrate is preferred. Furthermore, lipidic secondary products of the citric acid cycle, such as free fatty acids, are suitable as metabolic products. Lastly, in this second embodiment, the ability of the test compounds to inhibit the activity of at least one carboanhydrase occurring in mammals is also determined, although the test model used is set up differently from the first embodiment mentioned. The process of the second embodiment is based on the principle of determining in known manner the uptake of radioactivity from substrates of the citric acid cycle labeled with the ^14C-isotope into metabolic intermediate products or secondary products of the citric acid cycle of isolated, living mammalian cells and comparing the results obtained with the results obtained under otherwise identical conditions, but under the influence of CA-inhibitory compounds. Isolated living cells of rodents such as rats, mice or guinea-pigs, or of man, are preferably used in this variant of the method. Human cells are preferred. […]

## CC1(C)O[C@@H]2[C@@H](CO[C@@]3(COS(N)(=O)=O)OC(C)(C)O[C@@H]23)O1 [topiramate]
[1]
  pIC50: 7.13
[2]
  pIC50: 6.46
